Common to all, as to format: cell-based
The subject of one assay is LNCaP. Description: Cell growth inhibition assay, prostate cancer cell line LNCaP (medium with 10 ng/mL IL-6). The following applies: Homo sapiens, medium supplemented with 10 ng/mL of IL-6, 10,000 cells/well. As to the method:
(§1) The inhibitory effects of the compounds of the present invention against the growth of cancer cells were evaluated as shown below. The cancer cell lines including stomach cancer cell line (AGS), breast cancer cell lines (MDA-MB-231, MDA-MB-468, and BT-549), prostate cancer cell lines (LNCaP and DU-145), colon cancer cell line (HCT116), ovarian cancer cell line (SW626), liver cancer cell line (Hep3B), kidney cancer cell line (ACHN), lung cancer cell line (NCI-H23) and blood cancer cell lines (HEL92.1.7 and U266) were cultured under the protocol provided by each supplier. A medium supplemented with 10 ng/mL of IL-6 was used for LNCaP, a prostate cancer cell line, when treated with a drug. Each type of cells to be used in experiments were sub-cultured in a 96-well plate by counting the exact number of cells using Tali™ Image-based Cytometer (Life Technologies). In a 96-well plate, AGS, HCT116, and DU-145 were employed with 3,000 cells/well; NCI-H23, SW626, Hep3B, ACHN, BT-549, MDA-MB-231, HEL92.1.7, and U266 were employed with 5,000 cells/well; and LNCaP and MDA-MB-468 were employed with 10,000 cells/well. The cells were treated with the compounds listed in Examples which were diluted in various concentrations. Upon completion of the compounds treatment, AGS, HCT116, SW626, DU145, NCI-H23, Hep3B, ACHN, BT-549, LNCaP, HEL92.1.7, and U266 cells were cultured at 37° C. under 5% CO2 for from 72 to 96 hours, and MDA-MB-231 and MDA-MB-468 cells were cultured at 37° C. in air for from 72 to 96 hours. Subsequently, the cells were observed under microscope and drug precipitation and particular findings were investigated and recorded. And then, the 96-well plate was placed at room temperature for 30 minutes, added with 20 μL/well of CellTiter-Glo solution (Cat No. G7573, Promega) and shaken for 10 minutes, followed by being subjected to the measurement using PHERAstar™ microplate reader (BMG LABTECH) according to the supplier's general luminometer protocol. Wells where only culture liquid added without cell plating were used as a negative control, whereas wells where culture liquid containing 0.1% DMSO instead of the compounds listed in Examples were used as a positive control.

In a further assay the target is T1, STAT3 (Homo sapiens, UniProt P40763).
T1 construct: plasmid pSTAT3-TA-luc), which contains a stably operating STAT3 promoter; endogenous in cells
T1 sequence (P40763 whole entry): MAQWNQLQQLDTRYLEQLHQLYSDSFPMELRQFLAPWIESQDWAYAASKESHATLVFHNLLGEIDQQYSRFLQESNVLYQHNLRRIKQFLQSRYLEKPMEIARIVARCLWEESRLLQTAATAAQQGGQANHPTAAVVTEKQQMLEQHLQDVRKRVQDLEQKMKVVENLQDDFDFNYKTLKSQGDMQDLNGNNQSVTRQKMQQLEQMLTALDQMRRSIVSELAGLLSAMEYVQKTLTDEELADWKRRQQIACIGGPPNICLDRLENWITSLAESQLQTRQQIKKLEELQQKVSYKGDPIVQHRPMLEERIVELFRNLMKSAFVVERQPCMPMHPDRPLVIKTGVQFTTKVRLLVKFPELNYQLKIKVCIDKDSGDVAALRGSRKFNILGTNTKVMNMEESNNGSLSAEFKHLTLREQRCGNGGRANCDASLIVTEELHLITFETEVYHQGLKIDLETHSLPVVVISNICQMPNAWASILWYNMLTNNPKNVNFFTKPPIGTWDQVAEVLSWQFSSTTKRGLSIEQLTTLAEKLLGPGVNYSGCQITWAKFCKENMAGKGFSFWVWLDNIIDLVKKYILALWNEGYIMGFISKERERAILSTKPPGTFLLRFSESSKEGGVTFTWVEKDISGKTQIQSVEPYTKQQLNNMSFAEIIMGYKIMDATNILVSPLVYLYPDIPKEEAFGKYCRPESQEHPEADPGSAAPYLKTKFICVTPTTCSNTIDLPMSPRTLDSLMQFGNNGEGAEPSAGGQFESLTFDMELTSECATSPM
Briefly: STAT3 reporter gene assay (luciferase), LNCaP stable cell line (pSTAT3-TA-luc), IL-6 stimulation. As to the method: 1-1) Experiment on the Inhibition of STAT3 Activity
A human prostate cancer cell line (LNCaP stable cell line; plasmid pSTAT3-TA-luc), which contains a stably operating STAT3 promoter, was cultured in RPMI1640 medium (Cat No. 11875, Life Technologies) containing 10% fetal bovine serum (FBS) (Cat No. SH30396, Thermo Scientific) and 150 μg/mL G-418 solution (Cat No. 04 727 894 001, Roche). The reporter gene assay using LNCaP stable cell line was performed in RPMI1640 medium containing 3% DCC-FBS without G-418 solution. LNCaP stable cells were plated in two (2) white 96-well plates with 30,000 cells/50 μL in each well. The cells were cultured at 37° C., under 5% CO2 for 24 hours, and then treated with the compounds listed in Examples which were diluted in various concentrations. Subsequently, IL-6 was added to each well with a final concentration of 10 ng/mL. Upon completion of the treatment with the compounds and IL-6, the cells were cultured at 37° C., under 5% CO2 for from 24 to 48 hours. The plates were observed under microscope and drug precipitation and particular findings were investigated and recorded.
The luciferase assay and the cell viability assay were performed respectively with one of the two plates. For the luciferase assay, the liquid media in the 96-well plate was removed, and then, 20 μL of passive cell lysis buffer was added to each well. After shaking the plate for 30 minutes, luciferase activities of each well were measured in a PHERAstar™ microplate reader (BMG LABTECH) using a luciferase assay system (Cat No. E1501, Promega). For the cell viability assay, the 96-well plate was placed at room temperature for 30 minutes, added with 20 μL/well of CellTiter-Glo solution (Cat No. G7573, Promega), and shaken for 10 minutes in order to measure cytotoxicity caused by the compounds listed in Examples with a PHERAstar™ microplate reader (BMG LABTECH). Wells without 0.1% DMSO and stimulation were used as a negative control and wells with 0.1% DMSO and stimulation were used as a positive control.
(In a reporter assay the amount or activity of a reporter protein is the signal.)

In a further assay the test system is DU-145. Description: Cell growth inhibition assay, prostate cancer cell line DU-145. The following applies: Homo sapiens, DU-145 prostate cancer cell line. As to the method: as §1

A word on the IC50: it is the point on the concentration scale where inhibition reaches its midpoint. Lower therefore signals greater potency.

Bounds are passed on as bounds.

`CCOc1cc(OC(F)(F)F)cc(C(C)(C)c2cc(Br)cc(NC(=O)c3cc4nc(NS(C)(=O)=O)ccc4s3)c2)c1` [Example 60, N-(3-bromo-5-(2-(3-ethoxy-5-(trifluoromethoxy)phenyl)propan-2-yl)phenyl)-5-(methylsulfonamido)thieno[3,2-b]pyridine-2-carboxamide]: the IC50 stood at 0.37 µM in the assay on LNCaP, 0.063 µM at STAT3 and 0.17 µM with DU-145. Take `CC(C)(c1cc(Cl)cc(NC(=O)c2cc3cc(NS(C)(=O)=O)ccc3s2)c1)c1cc(OC(F)(F)F)ccc1F` [Example 62, N-(3-chloro-5-(2-(2-fluoro-5-(trifluoromethoxy)phenyl)propan-2-yl)phenyl)-5-(methylsulfonamido)benzo[b]thiophene-2-carboxamide]: the results for the IC50 with LNCaP, on STAT3 and with DU-145 were 0.075 µM, 0.011 µM and 0.016 µM, respectively. Turning to `COc1cc(OC(F)(F)F)cc(C(C)(C)c2cc(F)cc(NC(=O)c3cc4cc(NS(C)(=O)=O)ccc4s3)c2)c1` [Example 63, N-(3-fluoro-5-(2-(3-methoxy-5-(trifluoromethoxy)phenyl)propan-2-yl)phenyl)-5-(methylsulfonamido)benzo[b]thiophene-2-carboxamide], the IC50 with LNCaP was 0.037 µM; against STAT3 it was 0.034 µM; in the assay with DU-145 it was 0.01 µM. For `CC(C)(c1cccc(F)c1)c1cc(Cl)cc(NC(=O)c2cc3cc(NS(C)(=O)=O)ccc3s2)c1` [Example 65, N-(3-chloro-5-(2-(3-fluorophenyl)propan-2-yl)phenyl)-5-(methylsulfonamido)benzo[b]thiophene-2-carboxamide], the IC50 on STAT3 amounted to 0.064 µM; with DU-145, 0.005 µM.

As to `CC(C)Oc1cc(OC(F)(F)F)cc(C(C)(C)c2cc(Cl)cc(NC(=O)c3cn4cc(NS(C)(=O)=O)ccc4n3)c2)c1` [Example 74, N-(3-chloro-5-(2-(3-isopropoxy-5-(trifluoromethoxy)phenyl)propan-2-yl)phenyl)-6-(methylsulfonamido)imidazo[1,2-a]pyridine-2-carboxamide], the half-maximal inhibitory concentration (IC50) in the assay on LNCaP was 6.6 µM; on STAT3 it was 2.7 µM; in the assay on DU-145 it was 2.6 µM. Regarding `CC(C)(c1cc(Cl)cc(NC(=O)c2cc3cc(NS(C)(=O)=O)ccc3s2)c1)c1cc(OC2COC2)cc(OC(F)(F)F)c1` [Example 76, N-(3-chloro-5-(2-(3-(oxetan-3-yloxy)-5-(trifluoromethoxy)phenyl)propan-2-yl)phenyl)-5-(methylsulfonamido)benzo[b]thiophene-2-carboxamide], the IC50 with LNCaP worked out at 0.23 µM; against STAT3, 3 µM; in the assay with DU-145, 0.34 µM. `CC(C)Oc1cc(OC(F)(F)F)cc(C(C)(C)c2cc(Cl)cc(NC(=O)c3cc4c(s3)CCN(S(C)(=O)=O)C4)c2)c1` [Example 97, N-(3-chloro-5-(2-(3-isopropoxy-5-(trifluoromethoxy)phenyl)propan-2-yl)phenyl)-5-(methylsulfonyl)-4,5,6,7-tetrahydrothieno[3,2-c]pyridine-2-carboxamide]: the IC50 against STAT3 stood at 2.1 µM; in the assay on DU-145, 0.17 µM.

As for `CC(C)Oc1cc(OC(F)(F)F)cc(C(C)(C)c2cc(Cl)cc(NC(=O)c3cc(NS(C)(=O)=O)cs3)c2)c1` [Example 102, N-(3-chloro-5-(2-(3-isopropoxy-5-(trifluoromethoxy)phenyl)propan-2-yl)phenyl)-4-(methylsulfonamido)thiophene-2-carboxamide], the 50% inhibitory concentration (IC50) was 4.6 µM on STAT3 and greater than 1.1 µM in the assay on DU-145. Molecule `CC(C)Oc1cc(OC(F)(F)F)cc(C(C)(C)c2cc(Br)cc(NC(=O)c3cc4cc(OP(=O)(O)O)ccc4s3)c2)c1` [Example 192, 2-((3-bromo-5-(2-(3-isopropoxy-5-(trifluoromethoxy)phenyl)propan-2-yl)phenyl)carbamoyl)benzo[b]thiophen-5-yl dihydrogen phosphate] gave an IC50 against STAT3 of 0.75 µM. Regarding `CS(=O)(=O)Nc1ccc2[nH]c(C(=O)Nc3cccc(-c4ccccc4C(F)(F)F)c3)cc2c1` [Example 259, 5-(methylsulfonamido)-N-(2′-(trifluoromethyl)-[1,1′-biphenyl]-3-yl)-1H-indole-2-carboxamide], the IC50 with LNCaP came out at 2 µM; at STAT3, 1.1 µM.

In turn, `CS(=O)(=O)Nc1cc2cc(C(=O)Nc3cc(Cl)nc(Oc4ccc(Cl)cc4)c3)sc2cc1Cl` [Example 490, 6-chloro-N-(2-chloro-6-(4-chlorophenoxy)pyridin-4-yl)-5-(methylsulfonamido)benzo[b]thiophene-2-carboxamide] had an IC50 at STAT3 of 0.016 µM. The same measure, in the same setting: next, `CS(=O)(=O)Nc1ccc2sc(C(=O)Nc3cc(Cl)nc(Oc4ccc(Cl)nc4)c3)cc2c1` [Example 491, N-(2-chloro-6-((6-chloropyridin-3-yl)oxy)pyridin-4-yl)-5-(methylsulfonamido)benzo[b]thiophene-2-carboxamide]: 0.13 µM.

Take `CS(=O)(=O)Nc1cc2cc(C(=O)Nc3cc(Cl)nc(Oc4ccc(Cl)nc4)c3)sc2cc1Cl` [Example 492]: half-maximal inhibition against STAT3 (IC50) was put at 0.008 µM. With `CS(=O)(=O)Nc1ccc2sc(C(=O)Nc3cc(Cl)nc(Oc4ccc(C(F)(F)F)nc4)c3)cc2c1` [Example 493, N-(2-chloro-6-((6-(trifluoromethyl)pyridin-3-yl)oxy)pyridin-4-yl)-5-(methylsulfonamido)benzo[b]thiophene-2-carboxamide], the IC50 against STAT3 was determined as 0.14 µM. Take `CS(=O)(=O)Nc1cc2cc(C(=O)Nc3cc(Cl)nc(Oc4ccc(C(F)(F)F)nc4)c3)sc2cc1Cl` [Example 494, 6-chloro-N-(2-chloro-6-((6-(trifluoromethyl)pyridin-3-yl)oxy)pyridin-4-yl)-5-(methylsulfonamido)benzo[b]thiophene-2-carboxamide]: at STAT3, the IC50 was found to be 0.018 µM. Same read-out and setting: then `CS(=O)(=O)Nc1ccc2sc(C(=O)Nc3cc(Cl)nc(Oc4ccc(C(F)(F)F)cc4)c3)cc2c1` [Example 495, N-(2-chloro-6-(4-(trifluoromethyl)phenoxy)pyridin-4-yl)-5-(methylsulfonamido)benzo[b]thiophene-2-carboxamide], with 0.08 µM.

On STAT3, `CS(=O)(=O)Nc1cc2cc(C(=O)Nc3cc(Cl)nc(Oc4ccc(C(F)(F)F)cc4)c3)sc2cc1Cl` [Example 496, 6-chloro-N-(2-chloro-6-(4-(trifluoromethyl)phenoxy)pyridin-4-yl)-5-(methylsulfonamido)benzo[b]thiophene-2-carboxamide] came in with an IC50 of 0.009 µM. This IC50 lies about 8.9-fold lower than the previous one. With `COc1cc2sc(C(=O)Nc3cc(Cl)cc(C(C)(C)c4ccc(Cl)cc4)c3)cc2cc1NS(C)(=O)=O` [Example 497, N-(3-chloro-5-(2-(4-chlorophenyl)propan-2-yl)phenyl)-6-methoxy-5-(methylsulfonamido)benzo[b]thiophene-2-carboxamide], the IC50 on STAT3 worked out at 0.005 µM. This IC50 lies about 1.8-fold lower than the previous one. Same read-out and setting: then `COc1cc2sc(C(=O)Nc3cc(Cl)cc(Oc4ccc(Cl)cc4)c3)cc2cc1NS(C)(=O)=O` [Example 498, N-(3-chloro-5-(4-chlorophenoxy)phenyl)-6-methoxy-5-(methylsulfonamido)benzo[b]thiophene-2-carboxamide], with 0.06 µM.
